The values that follow are results of earlier work, collected in patent US20010044101A1, “IN VITRO METHOD FOR PREDICTING THE EV[…] OF A PROTEIN TO A DRUG TARGETED THEREAGAINST” (priority 1994, published 2001).

Like-named read-outs stand apart in the source and are kept apart here.

The test system of this data set is HIV-1.

Regarding “(-)-2′-deoxy-5-fluoro-3′-thiacytidine [FTC]”, the IC50 was greater than 50 µM (fourth passage of the wild-type HIV-1 progeny, MT-4 cells, increasing FTC concentration, read-out: IC50 (50% inhibitory concentration)); greater than 250 µM (passage 6 virus, tested at higher compound concentrations, read-out: IC50); greater than 50 µM (second passage of the AZT-resistant HIV-1 progeny, MT-4 cells, increasing FTC concentration, read-out: IC50 (50% inhibitory concentration)).
